Data set [1] has as its target T1, folate receptors on FR-positive KB cells (Homo sapiens, UniProt P15328).
T1 construct: endogenous in cells; host or cells: KB cells
The data set can be described thus: Binding affinity assay: direct binding of 177Lu-labelled compounds to FR-positive KB cells. The note with it: 177Lu-labelled compound, 1 h 37 °C. As to the method: FR-positive KB cells and FR-negative A549 cells were seeded in 24-well Falcon plates and allowed to form adherent monolayers (>90% confluent) overnight in FFRPMI/HIFCS. Spent incubation medium was replaced with FFRPMI supplemented with 10% HIFCS containing increasing concentrations (0.78 to 100 nmol/L) of [^177Lu]-Compound 34, [^177Lu]-Compound 37, or [^177Lu]-(non-targeted control) in the absence and presence of 10 μM FA. Cells were incubated for 1 h at 37° C. and then rinsed three times with 0.5 mL PBS. Five hundred microliters of 1% NaOH in PBS were added to each well; after 5 min, cell lysates were collected, transferred to individual tubes, and then counted for radioactivity on a gamma counter. Counts per minute (CPM) values were measured in all samples and plotted against concentration of [^177Lu]-Compound 34, [1^77Lu]-Compound 37, or [^177Lu]-(non-targeted control) using GraphPad Prism 8 program. Dissociation constants (Kd) was calculated using a GraphPad's nonlinear regression one site binding method.

The nature of data set [2]: Stability of [177Lu]-Compound 34 solution, radiochemical purity by radio-HPLC. The format is physicochemical. The procedure: Preparation of [^177Lu]-Compound 34: Compound 34 solution (250 μL, 2 mM) was added to a vial. Gentisic acid/acetate buffer pH 5.5 (800 μL) and ^177LuCl3 solution (170 μL, 184 mCi) were added to the vial. The vial was placed in a shielded heating block and heated at 95° C. for 15 min. After cooling to room temperature, 7 mL of DTPA/sodium ascorbate solution pH 7.4 was added to the labeling mixture. The final solution contains 184 mCi of ^177Lu, 0.6 mg of Compound 34, 8 mg of gentisic acid, 1.5 mg of DTPA, 350 mg of sodium ascorbate.
[^177Lu]-Compound 34 solution was stored at room temperature and in a refrigerator. The radiochemical purities were monitored using radio-HPLC. [^177Lu]-Compound 34 was stable up to 6 days.

A further data set relates to MDA-MB-231 tumors. The data set can be described thus: In vivo anti-tumor activity in mice bearing MDA-MB-231 tumors. The note with it: 300 nmol/3.7 GBq/kg, female nu nu mice, n=5. The procedure:
(§1) Four- to eight-week-old female nu nu mice or NSG mice (Harlan Sprague-Dawley, Inc.) were maintained on a standard 12-h light-dark cycle and fed ad libitum with folate deficient purified rodent diet (TestDiet #AIN-93G). FR-positive (human breast adenocarcinoma) or IGROV (human ovarian adenocarcinoma) or KB (human cervical adenocarcinoma) tumor cells were inoculated subcutaneously at the right flank of each mouse. Mice were dosed with [^177Lu]-Compound 34, [^177Lu]-Compound 37, or [^225Ac]-Compound 5 through the lateral tail vein under sterile conditions in a volume of 100 μL/10 g of phosphate-buffered saline (PBS). Growth of each s.c. tumor was followed by measuring the tumor two times per week. Tumors were measured in two perpendicular directions using Vernier calipers, and their volumes were calculated as 0.5×L×W^2, where L=measurement of longest axis in mm and W=measurement of axis perpendicular to L in mm. A stable disease (SD) was defined as volume reduction of <50% and increase of <50% in two weeks. A partial response (PR) was defined as volume regression >50% but with measurable tumor (>2 mm^3) remaining at all times. Complete response (CR) was defined as a disappearance of measurable tumor mass (<2 mm^3) at some point within the study. Cures were defined as CRs without tumor regrowth within the study time frame. As a general measure of gross toxicity, changes in body weights were determined on the same schedule as tumor volume measurements.

Data set [3] can be described thus: Body weight as measure of gross toxicity in the MDA-MB-231 anti-tumor study. It counts as in vivo. The note with it: 300 nmol/3.7 GBq/kg, female nu nu mice bearing MDA-MB-231 tumors.
Description: as §1, with “Mice were dosed with [^177Lu]-Compound 34, [^177Lu]-Compound 37, or [^225Ac]-Compound 5 through the lateral tail vein under sterile conditions in a volume of 100 μL/10 g of phosphate-buffered saline (PBS).” left out

pKd: −log10 of the molar value.

T1 sequence (P15328 25-234): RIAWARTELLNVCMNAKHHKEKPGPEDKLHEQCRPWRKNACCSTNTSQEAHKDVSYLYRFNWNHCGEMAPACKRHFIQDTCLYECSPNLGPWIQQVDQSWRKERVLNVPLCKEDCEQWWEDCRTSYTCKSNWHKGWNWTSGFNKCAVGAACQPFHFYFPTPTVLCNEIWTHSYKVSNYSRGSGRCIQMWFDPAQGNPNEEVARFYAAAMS

A word on the pKd: it is the negative decadic logarithm of the Kd, by convention in mol/L. Low values mean a large Kd, high ones a small Kd. In turn, `Nc1nc2ncc(CNc3ccc(C(=O)N[C@@H](CCCCNC(=O)C[C@H](NC(=O)[C@H](Cc4ccc5ccccc5c4)NC(=O)CNC(=O)CN4CCN(CC(=O)O)CCN(CC(=O)O)CCN(CC(=O)O)CC4)C(=O)O)C(=O)O)cc3)nc2c(=O)[nH]1` [[^177Lu]-Compound 34, metal not drawn] showed a negative-log Kd (pKd) in data set [1] of 8.14. Moreover, the “Radiochemical purity (%)” value in data set [2] (0° C., 3 days) was 97.19%; in data set [2] (0° C., 6 days) it was 96.58%; in data set [2] (0° C., initial) it was 97.14%; in data set [2] (Room temperature (24° C.), 3 days) it was 96.77%; in data set [2] (Room temperature (24° C.), 6 days), 95.89%; in data set [2] (Room temperature (24° C.), initial) it was 97.14%. Further, the “time over which the solution was stable” value in data set [2] (stored at room temperature and in a refrigerator, radio-HPLC) is reported as “up to 6 days”. In the data set with MDA-MB-231 tumors, the “partial responses (PRs)” value is given as “five”. In addition, the “average weight of mice (tolerability)” value in data set [3] is “did not lose any significant weight”.

For the origin of these results see patent US20240252693A1, “FOLATE RECEPTOR-TARGETED RADIOTHERAPEUTIC AGENTS AND THEIR USE” (Novartis AG, priority 2021, published 2024).
